Among the test systems are HL-60; Hs-578T; SN12C; IGROV-1; SK-MEL-5; A549; SW-620; SNB-19; HCT-15; UACC-62; HOP-92; NCI/ADR-RES; KM12; U-251; NCI-H23; SF-295; HT-29; SR; TK-10; UO-31.
Common to all, as to experiment: NCI anticancer screen, dose series, 48 h

SMILES strings stand for the structures.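 Values below derive from 48-hour exposures of cells grown in 96-well plates, with endpoints linearly interpolated between the two concentrations bracketing the appropriate inhibition level. GI50 = concentration required for 50% inhibition of growth.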 Calls of active or inactive are those of the source. Cut-off read from the data, not from the text of the source: active = GI50 up to about 1.1 µM and inactive = higher. Some results are limits rather than exact numbers.

On to `Cc1cccc(CNc2[nH]cnc3nncc2-3)c1`, for which the GI50 with HL-60 was > 100 µM (inactive); with Hs-578T, > 100 µM (inactive); with SN12C, 72.8 µM (inactive); in the test on IGROV-1, 64.4 µM (inactive); with SK-MEL-5 it was 64.4 µM (inactive); with A549, > 100 µM (inactive). Besides, the GI50 in the test on SW-620 was > 100 µM (inactive); in the test with SNB-19, > 100 µM (inactive); with HCT-15, greater than 100 µM; with UACC-62, > 100 µM (inactive); with HOP-92 it was 40.5 µM (inactive); in the test on NCI/ADR-RES, 90.2 µM (inactive). Moreover, the GI50 in the test with KM12 was > 100 µM (inactive); with U-251 it was > 100 µM (inactive); with NCI-H23, > 100 µM (inactive); in the test with SF-295, > 100 µM (inactive); with HT-29, > 100 µM (inactive); with SR, 43.5 µM (inactive). The values for the GI50 with TK-10 and in the test with UO-31 were > 100 µM (inactive) and 47.4 µM (inactive), respectively.
Take `Cn1c(=O)c2nc(COCc3nc4c(=O)n(C)c(=O)n(C)c4[nH]3)[nH]c2n(C)c1=O`: the GI50 in the test on HL-60, in the test on Hs-578T, in the test on SN12C, in the test with IGROV-1, in the test with SK-MEL-5 and with A549 was > 100 µM (inactive) each time. In addition, the GI50 is > 100 µM (inactive) in the test with SW-620; > 100 µM (inactive) in the test with SNB-19; greater than 100 µM in the test on HCT-15; > 100 µM (inactive) in the test on UACC-62; > 100 µM (inactive) with HOP-92; > 100 µM (inactive) in the test with NCI/ADR-RES. Moreover, the GI50 in the test on KM12, with U-251, with NCI-H23, in the test with SF-295, in the test with HT-29 and with SR was > 100 µM (inactive) each time. The GI50 in the test on TK-10 and in the test on UO-31 was > 100 µM (inactive) each time.
`O=c1c2cc(I)ccc2nc(S)n1Cc1ccccc1`: the GI50 in the test with HL-60 is 6.84 µM (inactive); in the test with Hs-578T, 16 µM (inactive); with SN12C it was 10.6 µM (inactive); with IGROV-1, 4.07 µM (inactive); in the test with SK-MEL-5 it was 6.17 µM (inactive); in the test on A549 it was 15.9 µM (inactive). Also, the GI50 was 59 µM (inactive) in the test with SW-620; 18.9 µM (inactive) in the test on SNB-19; 32.1 µM with HCT-15; 19.6 µM (inactive) with UACC-62; 8.75 µM (inactive) with HOP-92; 18.5 µM (inactive) in the test with NCI/ADR-RES. Also, the GI50 with KM12 is 9.08 µM (inactive); in the test with U-251 it was 18.4 µM (inactive); in the test with NCI-H23, 7.59 µM (inactive); in the test on SF-295, 9.02 µM (inactive); in the test on HT-29, 32.9 µM (inactive); in the test on SR, 30.7 µM (inactive). The GI50 with TK-10 is 16.8 µM (inactive); with UO-31, 0.543 µM (active).
As for `CSc1nc(Br)nc2ncn(C3CC(Oc4ccc(C)cc4)C(COc4ccc(C)cc4)O3)c12` (stereo not given), the GI50 was > 100 µM (inactive) in the test with HL-60; 25.1 µM (inactive) in the test with Hs-578T; > 100 µM (inactive) in the test with SN12C; > 100 µM (inactive) in the test with IGROV-1; > 100 µM (inactive) in the test on SK-MEL-5; > 100 µM (inactive) with A549. The GI50 in the test with SW-620 was > 100 µM (inactive); in the test with SNB-19, > 100 µM (inactive); in the test with HCT-15 it was greater than 100 µM; in the test with UACC-62, > 100 µM (inactive); in the test on HOP-92 it was 34 µM (inactive); with NCI/ADR-RES, > 100 µM (inactive). The GI50 was > 100 µM (inactive) in the test with KM12; > 100 µM (inactive) in the test with U-251; > 100 µM (inactive) in the test on NCI-H23; > 100 µM (inactive) with SF-295; > 100 µM (inactive) with HT-29; 3.72 µM (inactive) with SR. Also, the GI50 with TK-10 was > 100 µM (inactive); in the test on UO-31, 17.7 µM (inactive).
For `O=C(O)C1(Cc2ccc3c(c2)CCC3)Cc2ccccc2C1`, the GI50 in the test with HL-60 was 35.2 µM (inactive); in the test on Hs-578T, 73.1 µM (inactive); with SN12C it was > 100 µM (inactive); in the test with IGROV-1, > 100 µM (inactive); in the test with SK-MEL-5 it was > 100 µM (inactive); in the test with A549 it was 43 µM (inactive). Moreover, the GI50 with SW-620 was > 100 µM (inactive); in the test with SNB-19 it was > 100 µM (inactive); in the test on HCT-15 it was 54.2 µM; in the test with UACC-62, 76.6 µM (inactive); in the test with HOP-92, 29 µM (inactive); in the test on NCI/ADR-RES, 78.2 µM (inactive). For the same compound, the GI50 in the test on KM12 was 46.3 µM (inactive); with U-251 it was 65.8 µM (inactive); in the test with NCI-H23, 67.6 µM (inactive); in the test on SF-295 it was 38.9 µM (inactive); in the test with HT-29, 88.3 µM (inactive); in the test on SR, > 100 µM (inactive). In addition, the GI50 in the test with TK-10 is > 100 µM (inactive); in the test on UO-31, 46.1 µM (inactive).
With `C=CCNC(=O)CN(CC(=O)O)C1CCCCC1N(CC(=O)O)CC(=O)O` (stereo not given), the GI50 in the test on HL-60, with Hs-578T, in the test on SN12C, in the test with IGROV-1, with SK-MEL-5 and in the test on A549 was > 100 µM (inactive) each time. For the same compound, the GI50 in the test on SW-620 was > 100 µM (inactive); with SNB-19, > 100 µM (inactive); in the test with HCT-15, greater than 100 µM; in the test on UACC-62 it was > 100 µM (inactive); in the test on HOP-92, > 100 µM (inactive); with NCI/ADR-RES, > 100 µM (inactive). Moreover, the GI50 in the test with KM12, in the test on U-251, with NCI-H23, in the test on SF-295, in the test with HT-29 and with SR was > 100 µM (inactive) in each case. Besides, the GI50 with TK-10 and in the test on UO-31 was > 100 µM (inactive) each time.
Regarding `COc1cc(OC)c2c(c1)OC(c1cccnc1)C(c1ccccc1)C2=O` (stereo not given), the GI50 was > 100 µM (inactive) with HL-60; 49.5 µM (inactive) in the test with Hs-578T; > 100 µM (inactive) in the test on SN12C; > 100 µM (inactive) in the test on IGROV-1; > 100 µM (inactive) in the test with SK-MEL-5; > 100 µM (inactive) with A549. Besides, the GI50 in the test on SW-620 is > 100 µM (inactive); in the test on SNB-19, > 100 µM (inactive); in the test on HCT-15, greater than 100 µM; in the test with UACC-62 it was > 100 µM (inactive); in the test on HOP-92, > 100 µM (inactive); in the test with NCI/ADR-RES, 72.1 µM (inactive). Moreover, the GI50 in the test on KM12, with U-251, in the test with NCI-H23, with SF-295, in the test on HT-29 and in the test on SR was > 100 µM (inactive) throughout. Also, the GI50 in the test with TK-10 was > 100 µM (inactive); with UO-31 it was 35.8 µM (inactive).
Consider `COc1ccc2c(c1OC)OCC(CN(C)C)C2=O` (stereo not given), for which the GI50 was 2.54 µM (inactive) with HL-60; 39.1 µM (inactive) in the test with Hs-578T; 18.5 µM (inactive) in the test with SN12C; 18.6 µM (inactive) with IGROV-1; 17.7 µM (inactive) in the test on SK-MEL-5; 26.1 µM (inactive) with A549. For the same compound, the GI50 in the test with SW-620 is 7.45 µM (inactive); with SNB-19, > 100 µM (inactive); in the test with HCT-15, 18.1 µM; in the test on UACC-62, 17.1 µM (inactive); with HOP-92 it was 4.99 µM (inactive); in the test with NCI/ADR-RES it was 27.7 µM (inactive). In addition, the GI50 was 16.5 µM (inactive) in the test on KM12; 18.9 µM (inactive) in the test with U-251; 17.1 µM (inactive) in the test on NCI-H23; > 100 µM (inactive) with SF-295; 15.4 µM (inactive) in the test with HT-29; 1.87 µM (inactive) with SR. Further, the GI50 in the test with TK-10 was 16.7 µM (inactive); in the test with UO-31, 18.2 µM (inactive).
`COc1ccc(CCCNC(=O)c2cc(OC)c(OC)cc2CCO)cc1OC`: the GI50 in the test with HL-60, in the test with Hs-578T, in the test with SN12C, in the test with IGROV-1, in the test with SK-MEL-5 and in the test on A549 was > 100 µM (inactive) throughout. In addition, the GI50 in the test on SW-620 is > 100 µM (inactive); with SNB-19, > 100 µM (inactive); in the test on HCT-15 it was greater than 100 µM; in the test on UACC-62, > 100 µM (inactive); in the test on HOP-92, > 100 µM (inactive); in the test on NCI/ADR-RES, > 100 µM (inactive). Moreover, the GI50 with KM12, in the test on U-251, in the test with NCI-H23, with SF-295, with HT-29 and in the test with SR was > 100 µM (inactive) throughout. Besides, the GI50 with TK-10 and with UO-31 was > 100 µM (inactive) throughout.
As for `Nc1ncc(Cc2ccc3c(c2)OCO3)c(N)n1`, the GI50 was 73.5 µM (inactive) with HL-60; > 100 µM (inactive) in the test with Hs-578T; > 100 µM (inactive) in the test on SN12C; > 100 µM (inactive) in the test with IGROV-1; > 100 µM (inactive) in the test on SK-MEL-5; > 100 µM (inactive) with A549. The GI50 in the test with SW-620 is > 100 µM (inactive); with SNB-19 it was > 100 µM (inactive); with HCT-15, greater than 100 µM; in the test with UACC-62, > 100 µM (inactive); with HOP-92 it was 53.5 µM (inactive); in the test on NCI/ADR-RES, > 100 µM (inactive). Further, the GI50 with KM12, with U-251, with NCI-H23, in the test with SF-295, with HT-29 and with SR was > 100 µM (inactive) in each case. Further, the GI50 in the test with TK-10 and with UO-31 was > 100 µM (inactive) throughout.
